Experimental data as given in paper PMC12461331, “Screening of Medicines for Malaria Venture Open Boxes Identifies Potent SARS-CoV‑2 Papain-like Protease (PL^pro) Inhibitors” (ACS Omega, 2025).
Values after ≈ are worked out from the molar mass of the structure shown. Values joined by “and” are separate entries in the source; they are usually repeats but may differ in a detail not shown here. Equal entries are not always repeated. Where two headings read alike, the source gives them in different places. Square brackets hold non-standard residues; d marks the D form. Peptide text beside a SMILES is read from it.

Experiments:
in vitro [1] = conditions: PAMPA
in vitro [2] = conditions: CD1, mouse, microsomes, pH 7.4
SARS-CoV-2 [3] = test: microbe, parasite or virus in culture; conditions: for AC50: Severe acute respiratory syndrome coronavirus 2, HeLa-ACE2, read-out: Log AC50 (converted); for inhibition at 9.61 µM: Severe acute respiratory syndrome coronavirus 2, HeLa-ACE2, read-out: inhibition in the highest concentration tested
physchem [4] = conditions: 25 °C, kinetic from dmso stock
[5] = test system: uninfected HeLa-ACE2 cells; conditions: Hela-ACE2 Uninfected Cell Toxicity; for S0 / Sinf / nHill: curve fit; for qAC50: relation in column qAC50 Mode, unit not given
Plasma stability = conditions: female, BALB/c, mouse, plasma, pH 7.4
[6] = Human liver microsomal stability assay; conditions: human; for half-life at 0.5 μM: pH 7.4
PL^pro = PL^pro (Severe acute respiratory syndrome coronavirus 2, UniProt P0DTD1); conditions: 20 μM compound, 5 μM enzyme, average of triplicates with SD
HeLa-ACE2 cells [7] = conditions: for Data Mode / S0 / Sinf / nHill: Hela-ACE2 CoV-2 Total Cell count; for S0 / Sinf / nHill: curve fit; for HeLa-ACE2 Total Cell Efficacy (Sinf, note + or -): infected HeLa-ACE2 total cell count
SARS-CoV-2 [8] = conditions: for Data Mode: Hela-ACE2 % Positive SARS-CoV-2; for S0 / Sinf / nHill: Hela-ACE2 % Positive SARS-CoV-2, curve fit
in vitro [9] = conditions: human, microsomes, pH 7.4
in vitro [10] = conditions: human, uninfected HeLa-ACE2 cells
physchem [11] = conditions: pH 7.4
[12] = Mouse liver microsomal stability assay; conditions: CD1, mouse, pH 7.4
HeLa-ACE2 cells [13] = test: cells; conditions: Homo sapiens; for AC50: HeLa-ACE2, read-out: Log AC50 (converted)
[14] = female, BALB/c, mouse, 1 h, pH 7.4
[15] = Chromatographic distribution coefficient (eLogD7.4); conditions: pH 7.4
Kinetic solubility = conditions: 25 °C, kinetic from dmso stock
[16] = Parallel artificial membrane permeability assay (PAMPA)
SARS-CoV-2 PL^pro = SARS-CoV-2 PL^pro (Severe acute respiratory syndrome coronavirus 2, UniProt P0DTD1); format: biochemical
[17] = Severe acute respiratory syndrome coronavirus 2, HeLa-ACE2, read-out: CoV-2 EC50
[18] = Severe acute respiratory syndrome coronavirus 2, HeLa-ACE2, read-out: SARS-CoV-2 EC50
[19] = Severe acute respiratory syndrome coronavirus 2, HeLa-ACE2, read-out: qAC50
[20] = uninfected HeLa-ACE2 CC50, supplement summary
[21] = uninfected HeLa-ACE2 CC50, uninfected HeLa-ACE2 cells, average of triplicates
[22] = HeLa-ACE2, read-out: HeLa-ACE2 Total cells EC50

SMILES | Papp at 5 h, 10 μM (in vitro [1]) [×10⁻⁶ cm/s] | AC50 (SARS-CoV-2 [3]) [µM] | inhibition at 9.61 µM (SARS-CoV-2 [3]) [%] | Data Mode [5] | S0 [5] | Sinf [5] | nHill [5] | qAC50 [5] | half-life at 2 μM (Plasma stability) [h] | Data Mode (HeLa-ACE2 cells [7]) | CoV2 Efficacy (delta S0:Sinf) (SARS-CoV-2 [8]; HeLa-ACE2) | Data Mode (SARS-CoV-2 [8]) | S0 (SARS-CoV-2 [8]) | Sinf (SARS-CoV-2 [8]) | nHill (SARS-CoV-2 [8]) | AC50 at 24 h (in vitro [10]) [µM] | CC50 at 24 h (in vitro [10]; [20]) [µM] | CC50 at 24 h (in vitro [10]; [21]) [µM] | EC50 (HeLa-ACE2 cells [13]; [22]) [µM] | EC50 (HeLa-ACE2 cells [13]; HeLa-ACE2, read-out: qAC50) [µM] | also measured
C[C@H](c1cccc2ccccc12)N1CCC(C(=O)NCc2ccc(Cl)cc2)CC1 [Compound 12] | 0.25 | 2.97 | > 50 | decreasing | 0.4208 | -100 | 3.064 | 1.447e-5 | 38.5 | inactive | 104.049 | decreasing | 4.049 | -100 | 4 | 14.5 | 14.5 | 14.4 ± 0.2 | > 9.61 | > 9.61 | microsomal CLint at 0.5 μM (in vitro [2]): 226 µL/min/mg; EC50 (SARS-CoV-2 [3]; [17]): 2.97 µM; EC50 (SARS-CoV-2 [3]; [18]): 2.9 ± 0.2 µM; EC50 (SARS-CoV-2 [3]; [19]): 2.97 µM; solubility kinetic at 24 h (physchem [4]; pH 2, aqueous buffer): > 24.1 µg/mL; solubility kinetic at 24 h (physchem [4]; pH 7.4, aqueous buffer): 10.2 µg/mL (≈ 25.1 µM); half-life at 0.5 μM ([6]; liver microsomes): 28.5 min; ΔT m (PL^pro): 6.6 °C and 6.6 ± 0.2 °C; SI (average CC50/average EC50) (SARS-CoV-2 [8]; HeLa-ACE2): 4.8; SI (average CC50/average EC50) (SARS-CoV-2 [8]; supplement summary): 4.873; microsomal CLint at 0.5 μM (in vitro [9]): 97.2 µL/min/mg; chromatographic logD (physchem [11]): 4.7; half-life at 0.5 μM ([12]; liver microsomes): 12.3 min; plasma stability remaining 60 min ([14]; 2 μM): 89.75%
CC(c1cccc2ccccc12)N1CCC(C(=O)NCc2ccc(Cl)cc2)CC1 (stereo not shown) [Compound 13] | 0.3 | 3.71 | > 50 | decreasing | -6.029 | -100 | 4 | 1.885e-5 | 6.08 | increasing (weakly active) | 104.884 | decreasing | 4.884 | -100 | 3.857 | 18.9 | 18.9 | 18.8 ± 0.2 | > 9.61 | > 9.61 | microsomal CLint at 0.5 μM (in vitro [2]): 302 µL/min/mg; EC50 (SARS-CoV-2 [3]; [17]): 3.71 µM; EC50 (SARS-CoV-2 [3]; [18]): 3.7 ± 0.5 µM; EC50 (SARS-CoV-2 [3]; [19]): 3.71 µM; solubility kinetic at 24 h (physchem [4]; pH 2, aqueous buffer): > 24.4 µg/mL; solubility kinetic at 24 h (physchem [4]; pH 7.4, aqueous buffer): > 13.4 µg/mL; half-life at 0.5 μM ([6]; liver microsomes): 15.1 min; ΔT m (PL^pro): 6.15 °C and 6.1 ± 0.4 °C; S0 (HeLa-ACE2 cells [7]): -15.6144; Sinf (HeLa-ACE2 cells [7]): 100; nHill (HeLa-ACE2 cells [7]): 0.852; HeLa-ACE2 Total Cell Efficacy (Sinf, note + or -) (HeLa-ACE2 cells [7]): 0.852; SI (average CC50/average EC50) (SARS-CoV-2 [8]; HeLa-ACE2): 5; SI (average CC50/average EC50) (SARS-CoV-2 [8]; supplement summary): 5.083; Tags (tier) (SARS-CoV-2 [8]; tier of the screening summary): 3 (EC50< 10 µM, Efficacy >40%, SI > 5 or CC50 not reached at maximum concentration tested); microsomal CLint at 0.5 μM (in vitro [9]): 184 µL/min/mg; chromatographic logD (physchem [11]): 4.7; half-life at 0.5 μM ([12]; liver microsomes): 9.19 min; AC50 (HeLa-ACE2 cells [13]): > 9.61 µM; plasma stability remaining 60 min ([14]; 2 μM): 46.83%
COc1ccc(CNC(=O)C2CCN(C(C)c3cccc4ccccc34)C2)cc1 (stereo not shown) [Compound 17] |  | 6.48 | > 50 | decreasing | -3.377 | -100 | 2.597 | 2.965e-5 | 12.8 | increasing (weakly active) | 107.984 | decreasing | 7.984 | -100 | 2.951 | 29.6 | 29.6 | 29.6 ± 0.2 | > 9.61 | > 9.61 | chromatographic logD [15]: 4.25; solubility kinetic at 24 h (Kinetic solubility; pH 2, aqueous buffer): > 24 µg/mL; solubility kinetic at 24 h (Kinetic solubility; pH 7.4, aqueous buffer): > 19.9 µg/mL; EC50 (SARS-CoV-2 [3]; Severe acute respiratory syndrome coronavirus 2, HeLa-ACE2, read-out: CoV-2 EC50, HeLa-ACE2, supplement summary): 6.49 µM; EC50 (SARS-CoV-2 [3]; Severe acute respiratory syndrome coronavirus 2, HeLa-ACE2, read-out: SARS-CoV-2 EC50, HeLa-ACE2 cells, average of triplicates): 6.4 ± 0.4 µM; EC50 (SARS-CoV-2 [3]; Severe acute respiratory syndrome coronavirus 2, HeLa-ACE2, read-out: qAC50, Hela-ACE2 % Positive SARS-CoV-2, relation in column qAC50 Mode, unit inferred): 6.48 µM; half-life at 0.5 μM ([6]; microsomes): 21.7 min; microsomal CLint at 0.5 μM ([6]; microsomes, pH 7.4, HLM CLint(mic), human liver microsomes): 128 µL/min/mg; S0 (HeLa-ACE2 cells [7]): -9.971; Sinf (HeLa-ACE2 cells [7]): 100; nHill (HeLa-ACE2 cells [7]): 1.233; HeLa-ACE2 Total Cell Efficacy (Sinf, note + or -) (HeLa-ACE2 cells [7]): 1.233; half-life at 0.5 μM ([12]; microsomes): 10.3 min; microsomal CLint at 0.5 μM ([12]; microsomes): 270 µL/min/mg; AC50 (HeLa-ACE2 cells [13]): > 9.61 µM; Papp at 5 h, 10 μM [16]: 0.61 ×10⁻⁶ cm/s; plasma stability remaining 60 min [14]: 73.01%
C[C@@H](N)C(=O)N[C@H](CCCCN)C(=O)N[C@H](CCCNC(=N)N)C(=O)N[C@H](Cc1c[nH]cn1)C(=O)N[C@H](Cc1c[nH]cn1)C(=O)NCC(=O)N[C@H](Cc1ccc(O)cc1)C(=O)N[C@H](CCCCN)C(=O)N[C@H](CCCNC(=N)N)C(=O)N[C@H](CCCCN)C(=O)N[C@H](Cc1ccccc1)C(=O)N[C@H](Cc1c[nH]cn1)C(N)=O [P-113D] (H-[dA][dK][dR][dH][dH]G[dY][dK][dR][dK][dF][dH]-NH2) |  |  |  |  |  |  |  |  |  |  |  |  |  |  |  |  |  |  |  |  | inhibition of SARS-CoV-2 PL^pro (SARS-CoV-2 PL^pro; single dose 10 μM end point screen): ≥ 80%
NC[C@H]1O[C@H](O[C@H]2[C@H](O)[C@@H](O[C@H]3O[C@H](CO)[C@@H](O)[C@H](N)[C@H]3O)[C@H](N)C[C@@H]2N)[C@H](N)C[C@@H]1O [Tobramycin, reference compound] |  |  |  |  |  |  |  |  |  |  |  |  |  |  |  |  |  |  |  |  | inhibition of SARS-CoV-2 PL^pro (SARS-CoV-2 PL^pro): ≥ 80%
